Series [1] relates to HCT116. In words: In vitro toxicity / growth inhibition (CellTiter-Glo), HCT116. Format: cell-based. The settings on record: Homo sapiens, HCT-116; HCT116, 48 hr. The method, then: (§1) In order to determine in vitro toxicity of a compound in accordance with the present invention, 18 species of human cancer cell lines (HeLa, cervical cancer cell line; HCT116, SW480, SW620, RKO, colon cancer cell lines; H460, H1299, A549, lung cancer cell lines; MCF7, MDA-MB231, MDA-MB453, breast cancer cell lines; Jurkat, K562, THP1, Ramos, U937, blood cancer cell lines; PC3, DU145, prostate cancer cell lines) were used. Cell lines were cultured in RPMI 1640 culture medium containing penicillin/streptomycin (100 units/mL) and heat-inactivated 5% fetal bovine serum (FBS) under standard culture conditions ([…], 5% CO2, and 100% relative humidity). Thereafter, single cell suspension was obtained via trypsin treatment and pipetting. The suspension was diluted with the same medium such that a cell density is in a range of 8×10^3 to 1.5×10^4 cells/well, and was transferred to a 96-well microtiter plate. After culturing for 24 hours, cell cultures were treated with respective compounds of Examples at various concentrations. […] The above evaluation was carried out according to the methods given in a manufacture's manual. GI50 in Table 1 below refers to a concentration that compounds of Examples cause 50% growth inhibition of various cancer cells.

The subject of series [2] is Raw cell. The experiment in a line: Inhibition of LPS-induced NO increases. It counts as cell-based, Mouse. The settings on record: 5 μM compound; for NO: LPS, 18 hours, Griess Reagent; for activity at 5 µM: Mus musculus, 18 h, relative to LPS alone control. As to the method: As one of the methods to confirm anti-inflammatory responses, inhibition of increases in nitric oxide (NO) due to lipopolysaccharide (LPS) was carried out. Mouse cell line (Raw cell) was cultured in RPMI 1640 culture medium containing penicillin/streptomycin (100 units/mL) and heat-inactivated 5% fetal bovine serum (FBS) under standard culture conditions ([…], 5% CO2, 37° C., and 100% relative humidity). Test compounds were dissolved in dimethylsulfoxide (DMSO) and were used as a final concentration of 1 to 40 μM. Cells were proliferated to a cell density of 5×10^3 to 2×10^4 cells on a 24-well plate and were treated with the respective compounds (equal amounts of 5 μM) 1 hour prior to treatment with LPS ([…]). The thus-treated cells were cultured for 18 hours, and thereafter the amounts of NO thus produced were measured using Griess Reagent. Measurement was confirmed using an absorption spectrophotometer at 540 nm. The value was expressed as percentage (%) relative to a control in which LPS alone was treated.

In series [3] the test system is HeLa. In words: In vitro toxicity / growth inhibition (CellTiter-Glo), HeLa. Format: cell-based. As to conditions: Homo sapiens, 48 hr. The method, then:
as §1
A general note: Cellular ATP, detected with luciferase, serves as a proxy for viable cell number.

In series [4] the test system is H460. In words: In vitro toxicity / growth inhibition (CellTiter-Glo), H460. As to conditions: Homo sapiens, NCI-H460; H460, 48 hr. It counts as cell-based. The method, then:
as §1

The test system of series [5] is ICR-BG mice. The settings on record: mouse, in vivo. As to the method:
In order to confirm acute toxicity in vivo, a Rotarod Neurotoxicity test was carried out on ICR-BG mice (N=8). Animals were administered at a dose of 300 mg/kg. Animals received training at 7 rpm for 10 min twice, and 1 hour later the compound of Example 1 was administered intraperitoneally (ip) to 8 mice. Thereafter, for one minute at the intervals of every 30 min, 1 hour, 2 hours and 4 hours, times that animals fell from the rotarod and death of animal post-drug administration or affliction-related responses were continuously observed. When mice fell from the rotarod more than thrice in one minute, it was regarded as fall off.

The nature of series [6]: Solubility. It counts as physicochemical.
Series [7] relates to MCF7. The experiment in a line: In vitro toxicity / growth inhibition (CellTiter-Glo), MCF7. Format: cell-based. The settings on record: Homo sapiens; MCF7, 48 hr. The method, then:
as §1

Series [8] concerns Histone Deacetylase. In words: Histone H3/H4 acetylation in HCT116 cells (Western blot). Format: cell-based, human. As to conditions: 1 μM, HCT116, 0, 2 and 5 hours. As to the method: Human color cancer cell line (HCT116) was cultured in RPMI 1640 culture medium containing penicillin/streptomycin (100 units/mL) and heat-inactivated 5% fetal bovine serum (FBS) under standard culture conditions ([…], 5% CO2, 37° C., and 100% relative humidity). Test compounds were dissolved in dimethylsulfoxide (DMSO) and were used as a final concentration of 1 μM. Cells (3×10^7) were cultured in the presence of the test compound (1 μM, Example 1) and absence thereof for 0, 2 and 5 hours, respectively. The cell suspension, which was obtained via trypsin treatment and pipetting, was centrifuged at 200×g for 10 min to form a pellet. The thus-formed pellet was washed twice with 10-fold volume of saline and re-suspended in a buffer [[…], pH 7.9, 1.5 mM MgCl2, 10 mM KCl, 0.5 mM DTT, 1.5 mM PMSF]. Thereafter, hydrochloric acid was added in a final concentration of 0.2 M to the resulting suspension which was then stored on ice for 30 min. The final suspension was centrifuged at 11,000 rpm and 4° C. for 10 min. […]
Dialyzed proteins were subjected to gel electrophoresis using 16% protein gel and were probed with acetylated histone H3 (Ac-H3) or H4 (Ac-H4) antibodies (Upstate Biotechnology Inc). […] In order to compare the equal amount of proteins, protein quantification and protein gel were run in parallel, followed by coumassie blue staining.
Background: In western blotting, separated proteins are transferred to a membrane and probed.

Series [9] deals with HDAC. The experiment in a line: Inhibition of HDAC activity (fluorometric, HeLa nuclear extract). Format: biochemical, human. As to conditions: 30 min room temperature. As to the method: In order to determine inhibitory activity of a compound in accordance with the present invention on HDAC, evaluation was carried out using an aminocoumarin derivative of ω-acetylated lysine as a substrate for an enzyme. As an enzyme source, a nuclear extract obtained from human cervical cancer cell line HeLa cells was used. The above evaluation was carried out with modification of a method based on the details described in Weegener et al. (2003) Analytical Biochemistry, 321, 203-208. That is, […], […] of nuclear extract and a compound of Example 1 at different concentrations were added and maintained at room temperature for 30 min. Trypsin (10 mg/ml) and Trichostatin A (final concentration: […]) were added to the resulting mixture which was reacted at the same temperature for 20 min, thereby terminating the reaction. The enzyme activity-inhibitory concentration of the compound added was determined using a fluorometer. As a control compound, suberoylanilide hydroxamic acid (SAHA) was used. IC50 in Table 1 below refers to a concentration of the compound that leads to a 50% decrease in activity of HDAC.

pIC50: −log10 of the molar value. Values after ≈ are worked out from the molar mass of the structure shown. Where two headings read alike, the source gives them in different places.

`COc1ccc(-c2oc(CCCCCCC(=O)NO)nc2-c2ccccc2)cc1` [Example 1, 7-(5-(4-methoxyphenyl)-4-phenyloxazol-2-yl)heptanoic acid hydroxyamide]: the GI50 in [1] came to 3 µM; in [3] it was 1.4 µM; in series [4], 3.63 µM; in [7] it was 0.7 µM. Also, the NO in series [2] was found to be 63.7 μM/L. In [2], this molecule showed an activity at 5 µM of 57.9%. Besides, the “Mice fallen off rotarod” value in series [5] (0.5 h) is reported as 1/8(Fallen off); in series [5] (1 h), 1/8; in [5] (2 h), 0/8; in series [5] (4 h), 0/8. In series [6], this molecule had a solubility of 200 µg/mL (≈ 507 µM). Moreover, the “Acetylation of histone H3 (Ac-H3) and H4 (Ac-H4)” value in series [8] is on record as “acetylated over time was confirmed via Western blot analysis”. This molecule also gave a pIC50 in [9] of 8.97.
With `COc1ccc(-c2nc(CCCCCCC(=O)NO)oc2-c2cccnc2)cc1` [Example 13, 7-[4-(4-methoxy-phenyl)-5-pyridin-3-yl-oxazol-2-yl]-heptanoic acid hydroxyamide], the GI50 was 3.9 µM in [1], 3.9 µM in series [3], 4.4 µM in series [4] and 1 µM in series [7]. The same molecule had an NO in [2] of 57.1 μM/L. Also, the activity at 5 µM in series [2] amounted to 39.2%. The molecule also showed a solubility in [6] of 900 µg/mL (≈ 2280 µM). This molecule also showed a pIC50 in series [9] of 7.84.
Take `CN(C)c1ccc(-c2nc(CCCCCCC(=O)NO)oc2-c2cccnc2)cc1` [Example 14, 7-[4-(4-dimethylamino-phenyl)-5-pyridin-3-yl-oxazol-2-yl]-heptanoic acid hydroxyamide]: the GI50 in series [1] is 8.7 µM; in series [3], 7.8 µM; in series [4], 23.5 µM; in series [7] it was 8.7 µM. In addition, the NO in series [2] stood at 69.6 μM/L. For the same molecule, the activity at 5 µM in [2] is 74.4%. In series [6], this molecule displayed a solubility of 1000 µg/mL (≈ 2450 µM). In series [9], this molecule showed a pIC50 of 8.53.
As to `O=C(CCCCCCc1nc(-c2ccccc2)c(-c2ccncc2)o1)NO` [Example 17, 7-(4-phenyl-5-pyridin-4-yl-oxazol-2-yl)-heptanoic acid hydroxyamide], the GI50 in [1] worked out at 5.4 µM; in [3], 3.5 µM; in [4], 7.3 µM; in series [7], 1.8 µM. In series [2], this molecule returned an NO of 59.6 μM/L. This molecule displayed an activity at 5 µM in [2] of 46.1%. Further, in [6], the concentration in solution (solubility) came to 900 µg/mL (≈ 2460 µM). For the same molecule, in [9], the pIC50 was 7.71.

One may read the GI50 as the concentration giving 50% growth inhibition. A lower GI50 goes with more potent growth inhibition. The term solubility denotes the concentration that dissolves in the medium under given conditions. A low value points to little dissolved substance. The pIC50 is −log10 of the IC50, conventionally taken in molar units. Read a low pIC50 as a large IC50.

For the origin of these results see US8039634B2, “Oxazole hydroxamic acid derivatives and use thereof” (SK Holdings Co., Ltd., priority 2005, dated 2011).
